According to patent US20220274947A1, “NOVEL HETEROARYL-TRIAZOLE COMPOUNDS AS PESTICIDES” (Bayer Aktiengesellschaft, priority 2019, published 2022):

Assays:
Format in all cases: in vivo
[1] = system: Rhipicephalus microplus; assay: Rhipicephalus (Boophilus) microplus injection test (BOOPMI Inj); conditions: 168 h, injection into adult engorged female ticks, egg deposition after 7 days, read-out: activity (efficacy: 100% means all eggs are infertile); for pest or weed control at 0.004 mg: application rate 4 μg/tick; for pest or weed control at 0.02 mg: application rate 20 μg/tick
Outline: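 Five engorged adult female R. microplus ticks injected into the abdomen with 1 μL of compound diluted in DMSO, then kept in a climate chamber. Fertile egg deposition checked after 7 days; eggs without visible fertility held until hatching at about 42 days. Efficacy: 100% = all eggs infertile, 0% = all fertile.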

[2] = system: Rhipicephalus microplus; assay: Rhipicephalus (Boophilus) microplus in-vitro contact test, larval cattle tick, strain Parkhurst (BOOPMI Cont); conditions: application rate 5 μg/cm^2 (=500 g/ha), tick larvae, after 48 hours, read-out: activity (efficacy: 100% means all larvae are dead or moribund)
Outline: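 Acetone solutions dried onto glass tube walls (900 ppm giving 5 μg/cm^2); 20-50 pyrethroid-resistant Parkhurst larvae added per tube and held 48 h at 27° C., 85% relative humidity. Efficacy scored by negative geotaxis as % dead or moribund larvae.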

[3] = system: Ctenocephalides felis; assay: Ctenocephalides felis oral test (CTECFE Oral); conditions: 48 h, read-out: activity (mortality)
Protocol: Ctenocephalides felis—Oral Test (CTECFE Oral) Solvent: dimethyl sulfoxide
To produce a suitable preparation of active compound, 10 mg of active compound are dissolved in 0.5 mL solvent, and the concentrate is diluted with cattle blood to the desired concentration.
Approximately 20 adult unfed cat fleas (Ctenocephalides felis) are placed in flea chambers. The blood chamber, sealed with parafilm on the bottom, are filled with cattle blood supplied with compound solution and placed on the gauze covered top of the flea chamber, so that the fleas are able to suck the blood. The blood chamber is heated to 37° C. whereas the flea chamber is kept at room temperature.
After 2 days mortality in % is determined. 100% means all the fleas have been killed; 0% means none of the fleas have been killed.

[4] = system: Diabrotica balteata; assay: Diabrotica balteata spray test; conditions: 168 h, wheat seeds, larvae, after 7 days, read-out: activity (efficacy: 100% means all seedlings have grown up like in the untreated, uninfected control); for pest or weed control at 32 µg/disc, 100 g/ha: application rate 100 g/ha (=32 μg/well); for pest or weed control at 160 µg/disc, 500 g/ha: application rate 500 g/ha (=160 μg/well)
Outline: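 Wheat seedlings, germinated 1 day on agar, were sprayed with compound in acetone/DMF diluted in water containing emulsifier, then infested with 10-20 Diabrotica balteata larvae. After 7 days efficacy in % was scored: 100% means seedlings grew like the untreated, uninfected control; 0% means none grew.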

[5] = system: Myzus persicae; assay: Myzus persicae oral test; conditions: 120 h, read-out: activity (mortality)
Protocol: Myzus persicae—Oral Test Solvent: 100 parts by weight acetone
To produce a suitable preparation of active compound, 1 part by weight of active compound is mixed with the stated amount of solvent, and the concentrate is diluted with water to the desired concentration.
50 μL compound solution is filled in microtiter plates and 150 μL IPL41 insect medium (33%+15% sugar) is added to obtain a total volume of 200 μL per well. Afterwards the plates are sealed with parafilm through which a mixed population of the green peach aphid (Myzus persicae) can suck on the compound preparation.
After 5 days mortality in % is determined. 100% means all aphids have been killed and 0% means none of the aphids have been killed.

[6] = system: Spodoptera frugiperda; assay: Spodoptera frugiperda spray test; conditions: in Zea mays, 168 h, read-out: activity (mortality)
Outline: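 Maize leaf sections were sprayed with compound formulated in acetone/DMF and diluted in water containing 1000 ppm emulsifier. Dried leaves were infested with fall armyworm larvae, and percent mortality was scored after 7 days.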

[7] = system: Aedes aegypti strain MONHEIM; assay: Aedes aegypti test (AEDSAE surface treatment & contact assay); conditions: exposure 30 minutes, 24 hours after contact, read-out: efficacy (mortality); for mortality at 4 mg/m2: surface concentration 4 mg/m^2, glazed tile; for mortality at 20 mg/m2: surface concentration 20 mg/m^2, glazed tile
Protocol: Aedes aegypti Test (AEDSAE Surface Treatment & Contact Assay) Solvent: Aceton+2000 ppm rapeseed oil methyl ester (RME)
(§1) In order to produce a sufficient, active ingredient containing solution it is necessary to solve the test compound in the solvent-mix (acetone at 2 mg/ml/RME 2000 ppm). This solution is pipetted onto a glazed tile and after evaporation of the acetone, adult mosquitoes of the species Aedes aegypti strain MONHEIM are placed onto the dried surface. The exposure time is 30 minutes. Mortality in percent (%) is determined 24 hours after contact of the insects to the treated surface. 100% mortality means that all tested insects are dead, whereas 0% means that no insect died.

[8] = system: Musca domestica strain WHO—N; assay: Musca domestica test (MUSCDO surface treatment & contact assay); conditions: exposure 30 minutes, 24 hours after contact, read-out: efficacy (mortality); for mortality at 20 mg/m2: surface concentration 20 mg/m^2, glazed tile; for mortality at 4 mg/m2: surface concentration 4 mg/m^2, glazed tile
Protocol: Musca domestica Test (MUSCDO Surface Treatment & Contact Assay) Solvent: Aceton+2000 ppm rapeseed oil methyl ester (RME)
as §1, with “flies” for “mosquitoes”, “Musca domestica” for “Aedes aegypti”, “WHO—N” for “MONHEIM”

[9] = system: Ctenocephalides felis; assay: Ctenocephalides felis in-vitro contact test, adult cat flea (CTECFE Cont); conditions: application rate 5 μg/cm^2 (=500 g/ha), adult cat fleas, after 48 hours, read-out: activity (efficacy: 100% means all fleas are dead or moribund)
Protocol: Ctenocephalides felis—In-Vitro Contact Tests Adult Cat Flea (CTECFE Cont)
9 mg compound is solved in 1 mL acetone and diluted with acetone to the desired concentration. 250 μL of the test solution is filled in 25 mL glass test tubes and homogeneously distributed on the inner walls by rotation and tilting on a shaking device (2 h at 30 rpm). With a compound concentration of 900 ppm, an inner surface of 44.7 cm^2 and a homogeneous distribution, a dose of 5 μg/cm^2 is achieved.
After the solvent has evaporated, each test tube is filled with 5-10 adult cat fleas (Ctenocephalides felis), closed with a perforated lid and incubated in a lying position at room temperature and relative humidity. After 48 hours efficacy is determined. The fleas are patted on the ground of the tubes and are incubated on a heating plate at 45-50° C. for at most 5 minutes. Immotile or uncoordinated moving fleas, which are not able to escape the heat by climbing upwards, are marked as dead or moribund.
An efficacy of 100% means all fleas are dead or moribund; 0% means no fleas are dead or moribund.

[10] = system: Rhipicephalus sanguineus; assay: Rhipicephalus sanguineus in-vitro contact test, adult brown dog ticks (RHIPSA Cont); conditions: 48 h, after 48 hours, read-out: activity (efficacy: 100% means all ticks are dead or moribund); for pest or weed control at 1 µg/cm2, 100 g/ha: application rate 1 μg/cm^2 (=100 g/ha); for pest or weed control at 5 µg/cm2, 500 g/ha: application rate 5 μg/cm^2 (=500 g/ha)
Outline: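 Mortality of adult R. sanguineus was judged 48 h after contact with acetone-applied residues on glass tube walls. Ticks that stayed immotile or moved without coordination when heated to 45–50 °C (max 5 min) counted as dead or moribund.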

Compound | pest or weed control at 0.004 mg [1] [%] | pest or weed control at 0.02 mg [1] [%] | pest or weed control at 5 µg/cm2 [2] [%] | mortality at 100 ppm [3] [%] | pest or weed control at 32 µg/disc, 100 g/ha [4] [%] | pest or weed control at 160 µg/disc, 500 g/ha [4] [%] | mortality at 4 ppm [5] [%] | mortality at 100 g/ha [6] [%] | mortality at 4 mg/m2 [7] [%] | mortality at 20 mg/m2 [7] [%] | mortality at 20 mg/m2 [8] [%] | pest or weed control at 5 µg/cm2 [9] [%] | mortality at 500 g/ha [6] [%] | mortality at 4 mg/m2 [8] [%] | pest or weed control at 1 µg/cm2, 100 g/ha [10] [%] | pest or weed control at 5 µg/cm2, 500 g/ha [10] [%] | mortality at 0.8 ppm [5] [%]
CC(NC(=O)c1cc(Cl)cc(C(F)(F)F)c1)c1nc(C(F)F)nn1-c1ccc(C#N)cn1 (racemic) [I-9] | 100 | 100 | 100 | 100 | 100 | 100 | 100 | 100 | 80 to 100 | 80 to 100 | 80 to 100 |  |  |  |  |  | 
CCc1nc([C@H](C)NC(=O)c2cc(Cl)cc(C(F)(F)F)c2)n(-c2ccc(C#N)cn2)n1 [I-3] | 100 | 100 | 100 |  | 100 | 100 | 90 | 100 | 80 to 100 | 80 to 100 | 80 to 100 | 100 | 100 | 80 to 100 |  |  | 
CC(C)c1nc([C@H](C)NC(=O)c2cc(Br)cc(C(F)(F)F)n2)n(-c2ccc(C#N)cn2)n1 [I-20] |  |  |  |  |  |  |  |  |  |  |  | 80 |  |  |  |  | 
CC(C)c1nc([C@H](C)NC(=O)c2cc(Br)cc(Br)c2)n(-c2ccc(C#N)cn2)n1 [I-24] | 100 | 100 | 100 | 100 | 100 |  |  | 100 |  |  |  | 80 |  |  | 100 | 100 | 
C[C@H](NC(=O)c1cc(C#N)cc(C(F)(F)F)c1)c1nc(C2CC2)nn1-c1ccc(C#N)cn1 [I-44] | 100 |  | 100 | 100 | 100 |  |  | 100 | 80 to 100 | 80 to 100 | 80 to 100 |  |  | 80 to 100 |  |  | 90
COc1nc([C@H](C)NC(=O)c2cc(Br)cc(Br)c2)n(-c2ccc(C#N)cn2)n1 [I-61] | 100 |  | 100 |  | 100 |  | 100 | 100 |  |  |  | 80 |  |  | 100 | 100 | 
